Source: patent US20260069555A1, “Compositions and Methods for Modulating the Effect of Beta-Blocker Activity in a Subject” (Duke University, priority 2021, published 2026)
Several values for one entry are separate records, joined by “and”; a condition that tells them apart may be missing. Identical values can stand only once.

What was measured:
β1AR [1] = target: T1, β1AR (Homo sapiens, UniProt P08588); assay: EGFR transactivation (EGFR endocytosis BRET) in HEK293 cells stably expressing β1ARs; assay type: cell-based
Experimental: HEK293 cells stably expressing β1ARs were transfected with 250 ng of EGFR-RlucII and 1 μg of rGFP-FYVE constructs. The day following transfection, cells were re-seeded onto poly-L-ornithine coated 96-well plates at ˜25,000 cells per well. […] The cell-permeable substrate coelenterazine 400a (final concentrations of 5 μM) was added 3˜6 min before BRET measurements.

C57BL/6J wild-type mice = assay: Isoproterenol-induced hemodynamics in mouse heart; assay type: in vivo; conditions: 3 days
Experimental: Isoproterenol-induced hemodynamic in mouse heart: Eight to twelve-week-old C57BL/6J wild-type mice of both sexes were used. Animal experiments carried out were handled according to approved protocols and animal welfare regulations mandated by the Institutional Animal Care and Use Committee of Duke University Medical Center. […] After treatment, mice were anesthetized with ketamine (100 mg/kg) and xylazine (2.5 mg/kg). After bilateral vagotomy, a 1.4 French (0.46 mm) high fidelity micromanometer catheter (ADInstruments) connected to a pressure transducer (ADInstruments) was inserted into the left ventricle to monitor blood pressure. Basal blood pressure was recorded at steady state after the catheter insertion (2-3 min after insertion). Graded doses of isoproterenol were administered at 45 sec intervals by intravenous injection through a jugular vein. The blood pressure was monitored continuously and recorded at the steady state (35-45 sec after each injection). Data analysis was performed using LabChart 8 software (ADInstruments).

mouse hearts = assay: Ischemia/reperfusion-induced cell apoptosis in mouse heart (TUNEL); assay type: in vivo
Experimental: Ischemia reperfusion-induced cell apoptosis in mouse heart: Eight to twelve-week-old C57BL/6J wild-type mice or eight to twenty-seven-week-old αMyHC-Cre:Arrblflox/flox/Arrb2flox/flox mice of both sexes were used. Animals were randomly assigned to, and the researchers were blinded for, treatment groups. […] After 3 days of treatment, cardiac ischemia was produced by the ligation of left anterior descending coronary artery. After 45 min, the ligation was released to allow the blood flow to be restored for 45 min. […] The hearts were then embedded in optimum cutting temperature compound (Sakura Finetek) and snap frozen in liquid nitrogen. TUNEL staining on the cryo-sections were performed with in situ cell death detection kit (Sigma-Aldrich) according to the manufacturer's protocol. Sections were then mounted in ProLon Diamond Antifade Mountant with DAPI (Thermo Fisher Scientific). Images were recorded with Zeiss Axio Observer Z1 confocal microscope with 20× objective. In each heart, sections from different groups (from base to apex of the tissue, apart by 0.5 mm) were stained, and the group with maximum TUNEL-positive cells were used for quantification. At lease 9 images from 3 sections were quantified for each heart. The number of TUNEL-positive cells and the total number of nuclei as determined by DAPI staining were counted using ImageJ software.

β1AR [2] = target: T1, β1AR; assay: ERK activation assay in HEK293 cells expressing β1ARs; assay type: cell-based; conditions: for dependency of ERK activation on β-arrestin: β-arrestin1/2 knockout vs wild type HEK293 cells
Source text: ERK activation assay: HEK293 cells with stable overexpression of FLAG-tagged β1AR or β-arrestin knockout were described previously. Cells were periodically treated with BM Cyclin (Roche) to avoid mycoplasma contamination. […] Cell lysate samples were separated by SDS-PAGE, transferred to PVDF membrane (Bio-Rad) and subjected to immunoblotting with anti-MAPK 1/2 (EMD Millipore) and anti-p44/42 MAPK (Cell Signaling) antibodies. Immunoblots were detected using enhanced chemiluminescence (Thermo Fisher Scientific) and analyzed with ImageJ software. The densitometry values from pERK blots were normalized to respective total ERK blots, and normalized to the maximum response of control group in each experiment.

β1AR [3] = target: T1, β1AR; assay: GloSensor cAMP assay in HEK293 cells transfected with β1ARs; conditions: for activation of cAMP: β-blockers as stimulating ligands
β1AR [4] = target: T1, β1AR; assay: 125I-CYP competition binding at β1AR-HDL particles (Example 2)
[5] = target: endogenously expressed β2AR (Homo sapiens, UniProt P07550); assay: GloSensor cAMP generation in HEK293 cells; conditions: 30 μM modulator
β2AR-Gs complexes = β2AR-Gs complexes (Homo sapiens, UniProt P07550); assay: 35S-GTPγS binding to heterotrimeric Gs, β2AR in HDL; conditions: epinephrine 10 μM stimulation
β2AR = β2AR (Homo sapiens, UniProt P07550); assay: 125I-CYP competition radioligand binding at β2AR in HDL particles
Chain of β2AR (P07550 whole entry): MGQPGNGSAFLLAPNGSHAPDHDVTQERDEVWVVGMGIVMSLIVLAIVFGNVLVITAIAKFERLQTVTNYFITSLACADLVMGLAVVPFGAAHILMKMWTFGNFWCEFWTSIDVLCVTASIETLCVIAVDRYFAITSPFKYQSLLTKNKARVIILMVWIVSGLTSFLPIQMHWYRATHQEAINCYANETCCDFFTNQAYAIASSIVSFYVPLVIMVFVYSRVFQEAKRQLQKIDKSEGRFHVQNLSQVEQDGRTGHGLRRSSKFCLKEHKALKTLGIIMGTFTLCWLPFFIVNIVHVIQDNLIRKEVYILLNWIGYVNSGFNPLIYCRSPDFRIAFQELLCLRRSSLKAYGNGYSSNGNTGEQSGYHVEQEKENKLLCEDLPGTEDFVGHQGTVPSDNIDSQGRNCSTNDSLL

T1 sequence (P08588 whole entry): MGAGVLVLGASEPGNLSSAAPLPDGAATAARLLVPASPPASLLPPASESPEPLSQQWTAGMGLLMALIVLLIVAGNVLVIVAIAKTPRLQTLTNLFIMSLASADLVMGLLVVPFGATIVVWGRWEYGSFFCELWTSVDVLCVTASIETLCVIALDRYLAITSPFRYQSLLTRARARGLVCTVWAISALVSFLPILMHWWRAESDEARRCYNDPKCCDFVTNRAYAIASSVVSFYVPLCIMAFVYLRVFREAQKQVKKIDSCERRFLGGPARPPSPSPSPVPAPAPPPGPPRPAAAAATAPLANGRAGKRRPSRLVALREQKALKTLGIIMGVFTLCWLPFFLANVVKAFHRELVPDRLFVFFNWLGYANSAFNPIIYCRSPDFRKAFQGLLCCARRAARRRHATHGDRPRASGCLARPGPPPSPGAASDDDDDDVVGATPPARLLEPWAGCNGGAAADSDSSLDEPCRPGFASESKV
Chain of endogenously expressed β2AR (P07550 whole entry): as the sequence (P07550 whole entry) above
Chain of β2AR-Gs complexes (P07550 whole entry, one chain of several): as the sequence (P07550 whole entry) above

COc1cc2ncnc(Nc3cccc(Cl)c3)c2cc1OC [AG1478]
effect on EGF-induced change in BRET ratio (β1AR [1]; 10 μM pretreatment): blocked

COc1ccc(Sc2ccc(S(=O)(=O)N(C)C(C)C)cc2C(=O)N[C@@H](CC(N)=O)Cc2ccc(C(C)(C)C)cc2)cc1 [Cmpd-6, (R)—N-(4-amino-1-(4-(tert-butyl)phenyl)-4-oxobutan-2-yl)-5-(N-isopropyl-N-methylsulfamoyl)-2-((4-methoxyphenyl)thio)benzamide]
PAM activity on the isoproterenol-induced EGFR transactivation (β1AR [1]; 30 μM Cmpd-6): no PAM activity | potentiation of the inhibitory effect of carvedilol on heart rate and dP/dt max (C57BL/6J wild-type mice; Cmpd-6 5 mg/kg/day + carvedilol 1 mg/kg/day): only a modest potentiation | TUNEL positive cells in the ischemic zone (mouse hearts; Cmpd-6 5 mg/kg/day alone, wild type mice): ~10% | cooperativity on isoproterenol-stimulated ERK activation (β1AR [2]; 30 μM Cmpd-6): no cooperativity | effect on isoproterenol- or carvedilol-induced cAMP dose response curve (β1AR [3]; 30 μM Cmpd-6): no enhancement | cooperativity with the full agonists epinephrine and norepinephrine (β1AR [4]; 25 μM Cmpd-6): minimal positive cooperativity | enhancement of receptor binding affinity of carvedilol for β1ARs (β1AR [4]; FIG. 10A): 7.9 fold and ~8 fold

COc1ccccc1OCCNCC(O)COc1cccc2[nH]c3ccccc3c12 (stereo not shown) [carvedilol]
effect on isoproterenol-induced hemodynamics (heart rate, dP/dt max) (C57BL/6J wild-type mice; 1 mg/kg/day, osmotic pump): minimal effect | effect on isoproterenol-induced hemodynamics (heart rate, dP/dt max) (C57BL/6J wild-type mice; higher doses (5, 20 mg/kg/day)): blocked both the heart rate and contractility response | effect on I/R induced apoptosis (mouse hearts; 5 or 20 mg/kg/day, wild type mice): inhibited I/R induced apoptosis | effect on I/R-induced apoptosis (mouse hearts; low or high dose (1 or 20 mg/kg/day), cardiomyocyte-specific β-arrestin1/2 knockout mice): did not reduce

EGF: EGF ligand of the EGFR
ligand-induced EGFR endocytosis (change in BRET ratio) (β1AR [1]; assay validation): robust change in BRET ratio

CC(C)(Cc1c[nH]c2ccccc12)NCC(O)COc1ccccc1C#N (stereo not shown) [bucindolol]
dependency of ERK activation on β-arrestin (β1AR [2]): independent of β-arrestin | activation of cAMP (β1AR [3]): 40 % of the maximal isoproterenol response

C=CCc1ccccc1OCC(O)CNC(C)C (stereo not shown) [alprenolol]
dependency of ERK activation on β-arrestin (β1AR [2]): ~50% | activation of cAMP (β1AR [3]): 20 % of the maximal isoproterenol response

CC(C)N(C)S(=O)(=O)c1ccc(Sc2ccc(C(N)=O)cc2)c(C(=O)N[C@@H](CC(N)=O)Cc2ccc(C(C)(C)C)cc2)c1 [A9, (R)—N-(4-amino-1-(4-(tert-butyl)phenyl)-4-oxobutan-2-yl)-2-((4-carbamoylphenyl)thio)-5-(N-isopropyl-N-methylsulfamoyl)benzamide]
modulation of isoproterenol-stimulated cAMP generation [5]: classic NAM | effect on agonist-stimulated activation of Gs / 35S-GTPγS binding to Gs (β2AR-Gs complexes): markedly blocks | PAM activity with agonists including epinephrine (β2AR; affinity shifts, 20 μM analog): absolutely no PAM activity | Log KT (dissociation constant of PAM for receptor binding) (β2AR; carvedilol-bound β2AR): −5.533 | cooperativity with carvedilol (β2AR; compared with parent cmpd-6): retains its positive cooperativity with carvedilol
